Experimental data taken from paper PMC4875962 (Clinical Pharmacokinetics, 2015).

What was measured:
Metabolic CYP enzymes = settings: cited from earlier work
Transporters = settings: cited from earlier work
[1] = after multiple doses; cited from earlier work
platelet aggregation = settings: day 2 ratio (90 % CI 68.20–71.62); data on file

SMILES	Metabolic CYP enzymes inhibited (Metabolic CYP enzymes)	Transporters inhibited (Transporters)	other results
CCCCc1oc2ccc(NS(C)(=O)=O)cc2c1C(=O)c1ccc(OCCCN(CCCC)CCCC)cc1 [Dronedarone]	Moderate 3A4	P-gp	–
COc1ccc2nc([S@@+]([O-])Cc3ncc(C)c(OC)c3C)[nH]c2c1 [Esomeprazole]	2C9, 2C19 (competitive)	–	gastric pH [1]: approximately 5
CC(=O)N1CCN(c2ccc(OCC3COC(Cn4ccnc4)(c4ccc(Cl)cc4Cl)O3)cc2)CC1 (stereo not shown) [Ketoconazole]	Strong 3A4; weak 2C8, 2C19	P-gp	–
COc1ccc2cc([C@H](C)C(=O)O)ccc2c1 [Naproxen]	–	–	baseline-corrected ratio for platelet aggregation (platelet aggregation): 69.89%
C=C[C@H]1C[N@@]2CC[C@H]1C[C@@H]2[C@@H](O)c1ccnc2ccc(OC)cc12 [Quinidine]	Strong 2D6	P-gp; OCT2	–
CO[C@H]1/C=C/O[C@@]2(C)Oc3c(C)c(O)c4c(O)c(c(/C=N/N5CCN(C)CC5)c(O)c4c3C2=O)NC(=O)/C(C)=C\C=C\[C@H](C)[C@H](O)[C@@H](C)[C@@H](O)[C@@H](C)[C@H](OC(C)=O)[C@@H]1C [Rifampin]	–	–	Transporters induced (Transporters): P-gp
